One series has as its target ERBB2 (Homo sapiens, UniProt P04626). Description: Inhibition of NRGβ1-induced ERBB2 tyrosine phosphorylation in MCF7 cells. It counts as cell-based. The conditions noted are these: for inhibition of NRGβ1-induced phosphorylation of ERBB2: MCF7 cells.
Series [1] can be described thus: Octanol/water partition coefficient. Format: physicochemical.
The nature of series [2]: UV-vis absorption, fluorescence emission and lifetime in chloroform. The conditions noted are these: for Δν / ε / ϕem: CHCl3; for ϕem: ±10%, perylene in cyclohexane as reference; for τ1: fluorescence lifetime component 1; for τ2: fluorescence lifetime component 2; for f1: fraction of lifetime component 1; for f2: fraction of lifetime component 2.
For series [3] the following is noted: physiologically relevant concentrations; cited from earlier work.

This is an account of results in publication PMC4049246 (The Journal of Organic Chemistry, 2014).

Sequence of ERBB2 (P04626 23-1255): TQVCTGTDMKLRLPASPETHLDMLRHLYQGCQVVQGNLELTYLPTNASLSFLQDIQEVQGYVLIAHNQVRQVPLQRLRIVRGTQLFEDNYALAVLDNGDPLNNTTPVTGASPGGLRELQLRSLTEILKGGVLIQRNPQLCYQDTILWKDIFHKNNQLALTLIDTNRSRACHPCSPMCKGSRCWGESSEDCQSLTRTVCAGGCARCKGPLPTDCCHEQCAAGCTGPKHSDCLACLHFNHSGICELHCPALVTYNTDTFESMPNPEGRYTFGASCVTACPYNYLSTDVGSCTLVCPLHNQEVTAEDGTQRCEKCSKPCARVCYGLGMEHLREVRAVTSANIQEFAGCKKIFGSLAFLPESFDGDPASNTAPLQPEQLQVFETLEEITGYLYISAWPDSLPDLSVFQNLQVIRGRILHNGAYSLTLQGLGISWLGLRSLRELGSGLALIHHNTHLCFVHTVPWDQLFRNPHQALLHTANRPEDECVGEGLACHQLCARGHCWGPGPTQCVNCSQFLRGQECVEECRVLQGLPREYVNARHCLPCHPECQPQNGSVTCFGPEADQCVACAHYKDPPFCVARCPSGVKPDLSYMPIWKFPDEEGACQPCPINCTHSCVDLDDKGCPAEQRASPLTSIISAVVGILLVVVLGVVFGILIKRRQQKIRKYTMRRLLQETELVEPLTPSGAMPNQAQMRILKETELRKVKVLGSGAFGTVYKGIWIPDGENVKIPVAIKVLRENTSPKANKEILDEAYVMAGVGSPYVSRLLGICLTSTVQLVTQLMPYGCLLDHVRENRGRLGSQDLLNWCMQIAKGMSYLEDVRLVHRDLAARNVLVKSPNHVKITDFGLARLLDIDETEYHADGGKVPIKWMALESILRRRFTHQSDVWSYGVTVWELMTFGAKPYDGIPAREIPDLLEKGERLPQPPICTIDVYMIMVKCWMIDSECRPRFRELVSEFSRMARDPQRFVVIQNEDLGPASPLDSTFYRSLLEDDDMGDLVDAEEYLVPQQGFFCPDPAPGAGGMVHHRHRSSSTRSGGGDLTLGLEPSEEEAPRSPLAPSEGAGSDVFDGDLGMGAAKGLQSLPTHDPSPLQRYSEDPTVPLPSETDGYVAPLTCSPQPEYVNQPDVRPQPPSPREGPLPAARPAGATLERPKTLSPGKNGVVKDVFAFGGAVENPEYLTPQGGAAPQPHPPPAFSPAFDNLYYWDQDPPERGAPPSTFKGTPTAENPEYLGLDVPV

At ERBB2, `CN(C)c1ccc(-c2ccc3ncnc(Nc4ccccc4)c3c2)cc1` [1a, 6-(4-(Dimethylamino)phenyl)-N-phenylquinazolin-4-amine] registered a Ki of 10 µM. The “inhibition of NRGβ1-induced phosphorylation of ERBB2” value (from here on “inhibition”) against ERBB2 (100 nM probe) is “little to no inhibitory action”; against ERBB2 (10 μM probe), “showed inhibition”. Moreover, the “log Poctanol/water” value in series [1] came out at 1.50.

As for `COc1ccc(-c2ccc3ncnc(Nc4ccccc4)c3c2)cc1` [1b, 6-(4-Methoxyphenyl)-N-phenylquinazolin-4-amine], in series [2], the Δν is 9130 cm^–1, the ε is on record as 14 300 M^–1 cm^–1, the ϕem amounted to 0.02 and the τ1 amounted to 1.39 ns. In series [2], this compound yielded a τ2 of 6.76 ns, a f1 of 0.70 and a f2 of 0.30.

As for `O=[N+]([O-])c1ccc(-c2ccc3ncnc(Nc4ccccc4)c3c2)cc1` [1e, 6-(4-Nitrophenyl)-N-phenylquinazolin-4-amine], in series [2], the Δν amounted to 6480 cm^–1, the ε is given as 19 700 M^–1 cm^–1, the ϕem is recorded as 0.006 and the τ1 was found to be 0.11 ns. Moreover, in series [2], the τ2 worked out at 1.56 ns, the f1 was 0.74 and the f2 stood at 0.26.

Take `CN(C)c1ccc(/C=C/c2ccc3ncnc(Nc4ccccc4)c3c2)cc1` [2a, (E)-6-(4-Dimethylaminostyryl)-N-phenylquinazolin-4-amine]: the “inhibition” value against ERBB2 (100 nM probe) is listed as “little to no inhibitory action”; against ERBB2 (10 μM probe), “showed inhibition”.

Regarding `C(=C\c1ccc2ncnc(Nc3ccccc3)c2c1)/c1ccccc1` [2c, (E)-N-Phenyl-6-styrylquinazolin-4-amine], in series [2], the Δν was 7350 cm^–1, the ε is on record as 21 900 M^–1 cm^–1, the ϕem is on record as 0.02 and the τ1 turned out to be 0.05 ns. Also, in series [2], the τ2 is on record as 1.75 ns, the f1 worked out at 0.11 and the f2 is reported as 0.89.

As for `O=[N+]([O-])c1ccc(/C=C/C=C/c2ccc3ncnc(Nc4ccccc4)c3c2)cc1` [3e, 6-((1E,3E)-4-(4-Nitrophenyl)buta-1,3-dienyl)-N-phenylquinazolin-4-amine], the “inhibition” value on ERBB2 (100 nM probe) is “little to no inhibitory action”; against ERBB2 (10 μM probe), “showed inhibition”.

For the compound `CS(=O)(=O)CCNCc1ccc(-c2ccc3ncnc(Nc4ccc(OCc5cccc(F)c5)c(Cl)c4)c3c2)o1` [lapatinib], the aggregation entry in series [3] is reported as “significant aggregation”.
